The molecules below were run on HBV (assay: Anti-HBV activity in vitro: extracellular HBV DNA by qPCR in HepAD38 cells). Conditions: Hepatitis B virus, 96 hours incubation, extracellular HBV DNA by direct qPCR, read-out: HBV inh EC50.
Format: cell-based
From the text: HepAD38 cell line (Ladner et al., Antimicrob Agents Chemother, 1997, 41, 1715-20) was used for HBV inhibition assays. HepAD38 is a subclone, derived from Hepatoblastoma cell line HepG2 (ATCC® Number: HB-8065™), that expresses HBV genome under the transcriptional control of a tetracycline-responsive promoter in a TET-OFF system: addition of tetracycline (TET) or doxycycline suppresses HBV replication, while its removal switches on the process allowing HBV viral particles release in the cell supernatant. HepAD38 cell line is maintained in DMEM/F12, supplemented with 10% of fetal bovine serum, 1% of glutamine, 1% of penicillin/streptomycin, 0.4 mg/ml G418 and 0,3 ug/ml tetracycline. For the HBV inhibition assay, doxycycline-free medium is used in order to allow virion production.
HBV inhibition activity in vitro was performed in 96 multiwell plates. During the initial (primary) screening, compounds were first tested in triplicates at concentrations of 0.02 µM, 0.1µM, 0.5µM and 1µM. For selected compounds, an 8-point dose-response curve was obtained using 1:2 serial dilutions (starting from 0.01µM, 0.1µM, 0.4µM or 5 µM, depending on the degree of inhibition observed during the primary screening). From the dose-response curves, half maximal effective concentration (EC50) could be calculated (see also below).
In more detail, compounds - typically dissolved in DMSO stock solutions - were diluted to 2x the final desired concentration in 100 µl of the above medium (without doxycycline) and plated in three replicates in the 96-well plates.
Simultaneously, HepAD38 cells - extensively pre-washed in tetracycline-free medium in order to induce HBV production - were suspended at 2^∗10^4 cells in 100 µl of tetracycline-free medium and added to each well of the plate, to yield a final assay volume of 200 µl DMSO - used for stock solutions and compounds dilutions - which was always present in the assays at a final concentration of 0.5%.
Plates were then incubated 96 hours at 37°C and then subjected to cell viability assays and extracellular HBV quantification, in order to evaluate both the cytotoxic potential and the antiviral activity of compounds. Cytotoxicity was assessed by a commercial fluorescence assay that measures the metabolic activity of cells, directly related to cell viability (Cell Titer Blue, Promega). Anti-HBV activity was evaluated by quantification of extracellular HBV DNA with direct qPCR. In particular, supernatant was collected and centrifuged for cell debris clarification, viral DNA was extracted from virions by addition of lysis buffer (1 mM 1,4-dithiothreitol, 0.2% sodium dodecyl sulphate) and incubated at 95°C for 10 min. Samples were then diluted 1:40 and real time PCR amplification was performed with SYBR green assay (Power SYBR™ Green PCR Master Mix-Thermo Fisher Scientific) and specific HBV primer (HBV-DF:5'-[…]-3' (SEQ ID No. 1), HBV-DR:5'-[…]-3' (SEQ ID No. 2)).
Antiviral activity data for each compound are reported as EC50 threshold value (see Table 1 legend). Excel and Graphpad Prism programs are typically used for data elaboration and EC50 calculation.
`C[C@@H](NC(=O)C(=O)N1C[C@H]2COc3c(cn(C)c3C(=O)Nc3ccc(F)c(F)c3)S(=O)(=O)N[C@H]2C1)C(F)(F)F` [Example E2, (3aR,10aR)-N-(3,4-difluorophenyl)-7-methyl-2-(2-oxo-2-(((R)-1,1,1-trifluoropropan-2-yl)amino)acetyl)-2,3,3a,4,10,10a-hexahydro-1H,7H-dipyrrolo[3,4-b:3',4'-f][1,4,5]oxathiazocine-8-carboxamide 5,5-dioxide] was tested, and the EC50 was under 0.5 µM.
`C[C@@H](NC(=O)C(=O)N1C[C@H]2COc3c(c(Cl)n(C)c3C(=O)Nc3ccc(F)c(C(F)(F)F)c3)S(=O)(=O)N[C@H]2C1)C(F)(F)F` [Example E8, (3aR,10aR)-6-chloro-N-(4-fluoro-3-(trifluoromethyl)phenyl)-7-methyl-2-(2-oxo-2-(((R)-1,1,1-trifluoropropan-2-yl)amino)acetyl)-2,3,3a,4,10,10a-hexahydro-1H,7H-dipyrrolo[3,4-b:3',4'-f][1,4,5]oxathiazocine-8-carboxamide 5,5-dioxide] gave an EC50 of under 0.5 µM.
Molecule `C[C@@H](NC(=O)C(=O)N1C[C@H]2COc3c(c(Cl)n(C)c3C(=O)Nc3ccc(F)c(C(F)F)c3)S(=O)(=O)N[C@H]2C1)C(F)(F)F` [Example E7, (3aR,10aR)-6-chloro-N-(3-(difluoromethyl)-4-fluorophenyl)-7-methyl-2-(2-oxo-2-(((R)-1,1,1-trifluoropropan-2-yl)amino)acetyl)-2,3,3a,4,10,10a-hexahydro-1H,7H-dipyrrolo[3,4-b:3',4'-f][1,4,5]oxathiazocine-8-carboxamide 5,5-dioxide] has an EC50 of under 0.5 µM.
For `C[C@@H](NC(=O)C(=O)N1C[C@H]2COc3c(c(Cl)n(C)c3C(=O)Nc3ccc(F)c(F)c3)S(=O)(=O)N[C@H]2C1)C(F)(F)F` [Example E6, (3aR,10aR)-6-chloro-N-(3,4-difluorophenyl)-7-methyl-2-(2-oxo-2-(((R)-1,1,1-trifluoropropan-2-yl)amino)acetyl)-2,3,3a,4,10,10a-hexahydro-1H,7H-dipyrrolo[3,4-b:3',4'-f][1,4,5]oxathiazocine-8-carboxamide 5,5-dioxide], the EC50 was under 0.5 µM.
In the case of `C[C@@H](NC(=O)C(=O)N1C[C@H]2COc3c(cn(C)c3C(=O)Nc3ccc(F)c(C(F)F)c3)S(=O)(=O)N[C@H]2C1)C(F)(F)F` [Example E3, (3aR,10aR)-N-(3-(difluoromethyl)-4-fluorophenyl)-7-methyl-2-(2-oxo-2-(((R)-1,1,1-trifluoropropan-2-yl)amino)acetyl)-2,3,3a,4,10,10a-hexahydro-1H,7H-dipyrrolo[3,4-b:3',4'-f][1,4,5]oxathiazocine-8-carboxamide 5,5-dioxide], the EC50 is reported as under 0.5 µM.
Work on `C[C@@H](NC(=O)C(=O)N1C[C@H]2COc3c(cn(C)c3C(=O)Nc3ccc(F)c(Cl)c3)S(=O)(=O)N[C@H]2C1)C(F)(F)F` [Example E1, (3aR,10aR)-N-(3-chloro-4-fluorophenyl)-7-methyl-2-(2-oxo-2-(((R)-1,1,1-trifluoropropan-2-yl)amino)acetyl)-2,3,3a,4,10,10a-hexahydro-1H,7H-dipyrrolo[3,4-b:3',4'-f][1,4,5]oxathiazocine-8-carboxamide 5,5-dioxide] yielded an EC50 of under 0.5 µM.
`C[C@@H](NC(=O)C(=O)N1C[C@H]2COc3c(cn(C)c3C(=O)Nc3ccc(F)c(C(F)(F)F)c3)S(=O)(=O)N[C@H]2C1)C(F)(F)F` [Example E4, (3aR,10aR)-N-(4-fluoro-3-(trifluoromethyl)phenyl)-7-methyl-2-(2-oxo-2-(((R)-1,1,1-trifluoropropan-2-yl)amino)acetyl)-2,3,3a,4,10,10a-hexahydro-1H,7H-dipyrrolo[3,4-b:3',4'-f][1,4,5]oxathiazocine-8-carboxamide 5,5-dioxide] was tested, and the EC50 was under 0.5 µM.
With `C[C@@H](NC(=O)C(=O)N1C[C@H]2COc3c(c(Cl)n(C)c3C(=O)Nc3ccc(F)c(Cl)c3)S(=O)(=O)N[C@H]2C1)C(F)(F)F` [Example E5, (3aR,10aR)-6-chloro-N-(3-chloro-4-fluorophenyl)-7-methyl-2-(2-oxo-2-(((R)-1,1,1-trifluoropropan-2-yl)amino)acetyl)-2,3,3a,4,10,10a-hexahydro-1H,7H-dipyrrolo[3,4-b:3',4'-f][1,4,5]oxathiazocine-8-carboxamide 5,5-dioxide] the EC50 was under 0.5 µM.
`Cc1cc(NC(=O)c2c3c(c(Cl)n2C)S(=O)(=O)N[C@H]2CN(C(=O)C(=O)N[C@H](C)C(F)(F)F)C[C@H]2CO3)ccc1F` [Example E9, (3aR,10aR)-6-chloro-N-(4-fluoro-3-methylphenyl)-7-methyl-2-(2-oxo-2-(((R)-1,1,1-trifluoropropan-2-yl)amino)acetyl)-2,3,3a,4,10,10a-hexahydro-1H,7H-dipyrrolo[3,4-b:3',4'-f][1,4,5]oxathiazocine-8-carboxamide 5,5-dioxide] gave an EC50 of under 0.5 µM.

— patent EP3825318A1, “OXALAMIDO-SUBSTITUTED TRICYCLIC INHIBITORS OF HEPATITIS B VIRUS” (priority 2019, dated 2021)
